This assay deals with T1, H3 receptor (Rattus norvegicus, UniProt Q9QYN8).
T1 construct: The frontal cortex dissected from rats was homogenized; from tissue; host or cells: rat frontal cortex membrane fraction
Briefly: Rat H3 receptor binding test (N-α-methyl[3H]histamine, frontal cortex membrane fraction). The settings on record: N-α-methyl[3H]histamine 0.75 nM, room temperature, an hour. The protocol: (Test 1: Rat H3 Receptor Binding Test)
The frontal cortex dissected from rats was homogenized with a Teflon (registered trademark) homogenizer in a 50 mM Tris-HCl buffer solution (pH 7.4) containing a protease inhibitor (Complete EDTA-free; Roche Diagnostics) and 5 mM EDTA. The homogenate was centrifuged at 48,000×g for 15 minutes. The supernatant was removed and the pellet was suspended in a 50 mM Tris-HCl buffer solution (pH 7.4) containing 5 mM EDTA and centrifuged at 48,000×g for 15 minutes. The supernatant was removed and the pellet was suspended in a 50 mM Tris-HCl buffer solution (pH 7.4) containing 5 mM EDTA to give a membrane fraction. The membrane fraction (the protein content in the final reaction mixture: 75 μg), N-α-methyl[^3H]histamine (PerkinElmer; final concentration: 0.75 nM) and a test drug were mixed and subjected to reaction at room temperature for an hour. After the end of the reaction, the reaction mixture was suction filtered through a 96-well GF/C filter plate pretreated with 0.3% polyethyleneimine; the filters were then washed five times with a 50 mM Tris-HCl buffer solution (pH 7.4) containing 5 mM EDTA. After the washing, the filters were dried and a scintillator was added to measure the residual radioactivity on the filter with TopCount (PerkinElmer).
The residual radioactivity in the presence of 10 μM thioperamide was taken as indicative of nonspecific binding and the difference from the residual radioactivity in the absence of thioperamide was taken as indicative of specific binding. Each of the test drugs was dissolved and diluted in DMSO at varying concentrations to plot a dose-response curve from the corresponding residual radioactivities; the concentration of test drug that inhibited the specific binding by 50% (IC50) was determined from this curve.

Counter-ions that a name gives are not always drawn.

T1 sequence (Q9QYN8 whole entry): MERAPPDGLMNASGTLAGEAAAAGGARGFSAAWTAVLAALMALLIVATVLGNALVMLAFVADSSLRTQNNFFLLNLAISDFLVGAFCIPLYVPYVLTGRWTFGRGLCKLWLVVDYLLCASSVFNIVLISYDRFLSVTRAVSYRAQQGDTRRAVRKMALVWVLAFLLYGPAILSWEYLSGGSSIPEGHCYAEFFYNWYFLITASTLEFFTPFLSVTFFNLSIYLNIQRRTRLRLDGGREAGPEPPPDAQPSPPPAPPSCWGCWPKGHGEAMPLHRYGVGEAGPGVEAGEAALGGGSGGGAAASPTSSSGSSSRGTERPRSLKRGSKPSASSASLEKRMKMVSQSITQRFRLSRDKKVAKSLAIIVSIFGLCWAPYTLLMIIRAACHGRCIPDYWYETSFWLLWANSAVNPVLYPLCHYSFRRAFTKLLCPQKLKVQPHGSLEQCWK

On to `CCOC(=O)c1cn(-c2ccc(OC3CCN(C4CCC4)CC3)cc2)nn1` [Compound No. 1, ethyl 1-{4-[(1-cyclobutylpiperidin-4-yl)oxy]phenyl}-1H-1,2,3-triazole-4-carboxylate], for which the IC50 is 0.0053 µM.
`COCc1cn(-c2ccc(OC3CCN(C4CCC4)CC3)cc2)nn1` [Compound No. 2, 1-cyclobutyl-4-{4-[4-(methoxymethyl)-1H-1,2,3-triazol-1-yl]phenoxy}piperidine] registered an IC50 of 0.0074 µM.
In turn, `CCOc1cn(-c2ccc(OC3CCN(C4CCC4)CC3)cc2)nn1` [Compound No. 3, 1-cyclobutyl-4-[4-(4-ethoxy-1H-1,2,3-triazol-1-yl)phenoxy]piperidine] showed an IC50 of 0.0051 µM.
With `c1cc(-n2cc(C3CC3)nn2)ccc1OC1CCN(C2CCC2)CC1` [Compound No. 4, 1-cyclobutyl-4-[4-(4-cyclopropyl-1H-1,2,3-triazol-1-yl)phenoxy]piperidine], the IC50 came to 0.0036 µM.
As for `O=C(O)c1cn(-c2ccc(OC3CCN(C4CCC4)CC3)cc2)nn1` [Compound No. 17, 1-{4-[(1-cyclobutylpiperidin-4-yl)oxy]phenyl}-1H-1,2,3-triazole-4-carboxylic acid hydrochloride], the concentration for half-maximal inhibition (IC50) was found to be 0.132 µM.
In turn, `O=C(c1cn(-c2ccc(OC3CCN(C4CCC4)CC3)cc2)nn1)N1CCC1` [Compound No. 18, azetidin-1-yl(1-{4-[(1-cyclobutylpiperidin-4-yl)oxy]phenyl}-1H-1,2,3-triazol-4-yl)methanone] gave an IC50 of 0.014 µM.
For the compound `NC(=O)c1cn(-c2ccc(OC3CCN(C4CCC4)CC3)cc2)nn1` [Compound No. 20, 1-{4-[(1-cyclobutylpiperidin-4-yl)oxy]phenyl}-1H-1,2,3-triazole-4-carboxamide], the IC50 was 0.018 µM.
As for `N#Cc1cn(-c2ccc(OC3CCN(C4CCC4)CC3)cc2)nn1` [Compound No. 21, 1-{4-[(1-cyclobutylpiperidin-4-yl)oxy]phenyl}-1H-1,2,3-triazole-4-carbonitrile hydrochloride], the figure is 0.013 µM.
Take `c1cn(-c2ccc(OC3CCN(C4CCC4)CC3)cc2)nn1` [Compound No. 23, 1-cyclobutyl-4-[4-(1H-1,2,3-triazol-1-yl)phenoxy]piperidine]: the IC50 was 0.017 µM.
As for `CCOC(=O)c1cn(-c2ccc(OCCCN3CCC[C@H]3C)cc2)nn1` [Compound No. 24, ethyl 1-(4-{3-[(2R)-2-methylpyrrolidin-1-yl]propoxy}phenyl)-1H-1,2,3-triazole-4-carboxylate], the figure is 0.0074 µM; as for `O=C(c1cn(-c2ccc(OC3CCN(C4CCC4)CC3)cc2)nn1)N1CCOCC1` [Compound No. 25, (1-{4-[(1-cyclobutylpiperidin-4-yl)oxy]phenyl}-1H-1,2,3-triazol-4-yl)(morpholin-4-yl)methanone], 0.0064 µM.
The same measure for `CN(C)C(=O)c1cn(-c2ccc(OC3CCN(C4CCC4)CC3)cc2)nn1` [Compound No. 26, 1-{4-[(1-cyclobutylpiperidin-4-yl)oxy]phenyl}-N,N-dimethyl-1H-1,2,3-triazole-4-carboxamide]: 0.0055 µM; for `CCOC(=O)c1cn(-c2ccc(OC3CCN(C(C)(C)C)CC3)cc2)nn1` [Compound No. 27, ethyl 1-{4-[(1-tert-butylpiperidin-4-yl)oxy]phenyl}-1H-1,2,3-triazole-4-carboxylate]: 0.07 µM.
The compound `CC(C)(C)N1CCC(Oc2ccc(-n3cc(C(=O)N4CCCC4)nn3)cc2)CC1` [Compound No. 28, (1-{4-[(1-tert-butylpiperidin-4-yl)oxy]phenyl}-1H-1,2,3-triazol-4-yl)(pyrrolidin-1-yl)methanone] yielded an IC50 of 0.033 µM.
Consider `CC(C)(C)N1CCC(Oc2ccc(-n3cc(C(=O)N4CCC4)nn3)cc2)CC1` [Compound No. 29, azetidin-1-yl(1-{4-[(1-tert-butylpiperidin-4-yl)oxy]phenyl}-1H-1,2,3-triazol-4-yl)methanone], for which the 50% inhibitory concentration (IC50) is 0.048 µM.
The same measure for `CNC(=O)c1cn(-c2ccc(OC3CCN(C(C)(C)C)CC3)cc2)nn1` [Compound No. 30, 1-{4-[(1-tert-butylpiperidin-4-yl)oxy]phenyl}-N-methyl-1H-1,2,3-triazole-4-carboxamide]: 0.126 µM.
Take `CC(C)(C)N1CCC(Oc2ccc(-n3cc(C(N)=O)nn3)cc2)CC1` [Compound No. 31, 1-{4-[(1-tert-butylpiperidin-4-yl)oxy]phenyl}-1H−1,2,3-triazole-4-carboxamide]: the IC50 came out at 0.122 µM.
The same measure for `CC(C)(C)N1CCC(Oc2ccc(-n3cc(C#N)nn3)cc2)CC1` [Compound No. 32, 1-{4-[(1-tert-butylpiperidin-4-yl)oxy]phenyl}-1H-1,2,3-triazole-4-carbonitrile]: 0.067 µM.
Regarding `CCOC(=O)c1ncn(-c2ccc(OC3CCN(C4CCC4)CC3)cc2)n1` [Compound No. 33, ethyl 1-{4-[(1-cyclobutylpiperidin-4-yl)oxy]phenyl}-1H-1,2,4-triazole-3-carboxylate], the IC50 was 0.0045 µM.
Consider `O=C(c1ncn(-c2ccc(OC3CCN(C4CCC4)CC3)cc2)n1)N1CCCC1` [Compound No. 34, (1-{4-[(1-cyclobutylpiperidin-4-yl)oxy]phenyl}-1H-1,2,4-triazol-3-yl)(pyrrolidin-1-yl)methanone], for which the IC50 was found to be 0.0013 µM.
`O=C(c1ncn(-c2ccc(OC3CCN(C4CCC4)CC3)cc2)n1)N1CCC1` [Compound No. 35, azetidin-1-yl(1-{4-[(1-cyclobutylpiperidin-4-yl)oxy]phenyl}-1H-1,2,4-triazol-3-yl)methanone] gave an IC50 of 0.0005 µM.
Turning to `O=C(c1ncn(-c2ccc(OC3CCN(C4CCC4)CC3)cc2)n1)N1CCCCC1` [Compound No. 36, (1-{4-[(1-cyclobutylpiperidin-4-yl)oxy]phenyl}-1H-1,2,4-triazol-3-yl)(piperidin-1-yl)methanone], the IC50 came to 0.01 µM.
`CC(C)(C)NC(=O)c1ncn(-c2ccc(OC3CCN(C4CCC4)CC3)cc2)n1` [Compound No. 37, N-tert-butyl-1-{4-[(1-cyclobutylpiperidin-4-yl)oxy]phenyl}-1H-1,2,4-triazole-3-carboxamide] came in with an IC50 of 0.0073 µM.
Compound `O=C(O)c1ncn(-c2ccc(OC3CCN(C4CCC4)CC3)cc2)n1` [Compound No. 38, 1-{4-[(1-cyclobutylpiperidin-4-yl)oxy]phenyl}-1H-1,2,4-triazole-3-carboxylic acid hydrochloride] had an IC50 of 0.158 µM.
The same measure for `NC(=O)c1ncn(-c2ccc(OC3CCN(C4CCC4)CC3)cc2)n1` [Compound No. 39, 1-{4-[(1-cyclobutylpiperidin-4-yl)oxy]phenyl}-1H-1,2,4-triazole-3-carboxamide]: 0.011 µM.
`CC(=O)c1ncn(-c2ccc(OC3CCN(C4CCC4)CC3)cc2)n1` [Compound No. 40, 1-(1-{4-[(1-cyclobutylpiperidin-4-yl)oxy]phenyl}-1H-1,2,4-triazol-3-yl)ethanone hydrochloride] had an IC50 of 0.0064 µM.
As for `N#Cc1ncn(-c2ccc(OC3CCN(C4CCC4)CC3)cc2)n1` [Compound No. 41, 1-{4-[(1-cyclobutylpiperidin-4-yl)oxy]phenyl}-1H-1,2,4-triazole-3-carbonitrile], the figure is 0.0064 µM.
The same measure for `CC(=O)c1cn(-c2ccc(OC3CCN(C4CCC4)CC3)cc2)nn1` [compound 5, 1-(1-[4-[(1-cyclobutylpiperidin-4-yl)oxy]phenyl}-1H-1,2,3-triazol-4-yl)ethanone]: 0.0077 µM.
The compound `CC(C)(O)c1cn(-c2ccc(OC3CCN(C4CCC4)CC3)cc2)nn1` [compound 6, 2-(1-{4-[(1-cyclobutylpiperidin-4-yl)oxy]phenyl}-1H-1,2,3-triazol-4-yl)propan-2-ol] came in with an IC50 of 0.012 µM.
As for `CC(C)(C)c1cn(-c2ccc(OC3CCN(C4CCC4)CC3)cc2)nn1` [compound 7, 4-[4-(4-tert-butyl-1H-1,2,3-triazol-1-yl)phenoxy]-1-cyclobutylpiperidine], the figure is 0.0049 µM; as for `Cc1c(C(=O)N2CCCC2)nnn1-c1ccc(OC2CCN(C3CCC3)CC2)cc1` [compound 9, (1-{4-[(1-cyclobutylpiperidin-4-yl)oxy]phenyl}-5-methyl-1H-1,2,3-triazol-4-yl)(pyrrolidin-1-yl)methanone], 0.024 µM.
As for `Cc1c(C(=O)N2CCC2)nnn1-c1ccc(OC2CCN(C3CCC3)CC2)cc1` [compound 10, azetidin-1-yl(1-{4-[(1-cyclobutylpiperidin-4-yl)oxy]phenyl}-5-methyl-1H-1,2,3-triazol-4-yl)methanone], the figure is 0.037 µM.
The same measure for `CNC(=O)c1nnn(-c2ccc(OC3CCN(C4CCC4)CC3)cc2)c1C` [compound 11, 1-{4-[(1-cyclobutylpiperidin-4-yl)oxy]phenyl}-N,5-dimethyl-1H-1,2,3-triazole-4-carboxamide]: 0.019 µM; for `O=C(Cc1cn(-c2ccc(OC3CCN(C4CCC4)CC3)cc2)nn1)N1CCCC1` [compound 12, 2-(1-[4-[(1-cyclobutylpiperidin-4-yl)oxy]phenyl}-1H-1,2,3-triazol-4-yl)-1-(pyrrolidin-1-yl)ethanone]: 0.016 µM.
